Source: patent US20140163012A1, “PYRIDO-/AZEPINO-BENZOFURAN AND PYRIDO-/AZEPINO-BENZOTHIOPHENE MCH-1 ANTAGONISTS, METHODS OF MAKING, AND USE THEREOF” (Albany Molecular Research, Inc., priority 2012, published 2014)

Key:
human MCH-1 receptor = human MCH-1 receptor (Homo sapiens, UniProt Q99705); assay: Binding assay for human melanin-concentrating hormone (MCH-1) receptor, radioligand displacement on CHO-K1 cell membranes; conditions: for inhibition at 1 µM: read-out: MCH1 % inhibition @ 1 uM
Sequence of human MCH-1 receptor (Q99705 whole entry): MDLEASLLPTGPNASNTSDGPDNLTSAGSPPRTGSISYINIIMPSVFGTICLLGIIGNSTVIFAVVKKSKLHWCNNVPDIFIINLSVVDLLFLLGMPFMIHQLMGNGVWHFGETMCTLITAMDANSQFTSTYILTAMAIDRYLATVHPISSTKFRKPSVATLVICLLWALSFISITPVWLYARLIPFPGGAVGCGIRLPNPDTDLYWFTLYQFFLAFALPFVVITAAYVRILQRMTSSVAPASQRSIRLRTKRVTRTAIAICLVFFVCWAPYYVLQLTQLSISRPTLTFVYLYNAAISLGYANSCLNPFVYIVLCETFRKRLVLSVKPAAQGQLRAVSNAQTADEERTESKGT
Description: Nonspecific binding was determined in the presence of 50 μM 1-(5-(4-cyanophenyl)bicyclo[3.1.0]hexan-2-yl)-3-(4-fluoro-3-(trifluoromethyl)phenyl)-1-(3-(4-methylpiperazin-1-yl)propyl)urea. […] The filters were counted for radioactivity in a liquid scintillation counter (Tri-Carb 2100TR, Packard) using a scintillation cocktail (Ultima Gold MV, Perkin Elmer).
The results are expressed as a percent inhibition of the control radioligand specific binding. The IC50 value (concentration causing a half-maximal inhibition of control specific binding) and Hill coefficient (nH) were determined by non-linear regression analysis of the competition curve using Hill equation curve fitting.

Row | melting point | inhibition at 1 µM (human MCH-1 receptor) | Ki (human MCH-1 receptor) | Compound
1 | 165 to 167 °C | 13% | – | Cl.O=c1cc(OCc2ccc(F)cn2)ccn1-c1ccc2sc3c(c2c1)CNCC3 [Example 68, 4-(5-Fluoropyridin-2-yl)methoxy-1-(1,2,3,4-tetrahydrobenzo[4,5]thieno[3,2-c]pyridin-8-yl)pyridin-2(1H)-one hydrochloride]
2 | > 300 °C | – | 7.5 nM | Cl.O=c1cc(-c2ccc(C(F)(F)F)cc2)ccn1-c1ccc2c3c(oc2c1)CCNC3 [Example 71, 1-(1,2,3,4-Tetrahydrobenzofuro[3,2-c]pyridin-7-yl)-4-(4-(trifluoromethyl)phenyl)pyridin-2(1H)-one hydrochloride]
3 | > 300 °C | 41% | – | Cl.O=c1cc(-c2ccc(C(F)(F)F)nn2)ccn1-c1ccc2c3c(oc2c1)CCNC3 [Example 88, 1-(1,2,3,4-Tetrahydrobenzofuro[3,2-c]pyridin-7-yl)-4-(6-(trifluoromethyl)pyridazin-3-yl)pyridin-2(1H)-one hydrochloride]
4 | 220 to 223 °C | – | 84 nM | Cl.O=C1CN(CCc2ccc(Cl)cn2)CCN1c1ccc2c3c(oc2c1)CCNC3 [Example 91, 4-(2-(5-Chloropyridin-2-yl)ethyl)-1-(1,2,3,4-tetrahydrobenzofuro[3,2-c]pyridin-7-yl)piperazin-2-one hydrochloride]
5 | 283 to 289 °C | – | 6.6 nM | Cl.O=c1cc(CCc2ccccc2)ccn1-c1ccc2c3c(oc2c1)CCNC3 [Example 104, 4-Phenethyl-1-(1,2,3,4-tetrahydrobenzofuro[3,2-c]pyridin-7-yl)pyridin-2(1H)-one hydrochloride]
6 | 176 to 178 °C | 7.7% | – | Cl.O=c1cc(OCc2ccccc2)ccn1-c1ccc2sc3c(c2c1)CNCCC3 [Example 118, 4-Benzyloxy-1-(2,3,4,5-tetrahydro-1H-benzo[4,5]thieno[3,2-c]azepin-9-yl)pyridin-2(1H)-one hydrochloride]
7 | 170 to 172 °C | -2.6% | – | Cl.O=c1cc(OCc2ccc(F)cn2)ccn1-c1ccc2sc3c(c2c1)CNCCC3 [Example 119, 4-((5-Fluoropyridin-2-yl)methoxy)-1-(2,3,4,5-tetrahydro-1H-benzo[4,5]thieno[3,2-c]azepin-9-yl)pyridin-2(1H)-one hydrochloride]
8 | 165 to 169 °C | – | 29 nM | Cl.O=c1cc(CCc2ccc(F)cn2)ccn1-c1ccc2c3c(oc2c1)CCNC3 [Example 102, 4-(2-(5-Fluoropyridin-2-yl)ethyl)-1-(1,2,3,4-tetrahydrobenzofuro[3,2-c]pyridin-7-yl)pyridin-2(1H)-one hydrochloride]
9 | 285 to 288 °C | – | 12 nM | Cl.O=c1cc(CCc2ccc(Cl)cn2)ccn1-c1ccc2c3c(oc2c1)CCNC3 [Example 105, 4-(2-(5-Chloropyridin-2-yl)ethyl)-1-(1,2,3,4-tetrahydrobenzofuro[3,2-c]pyridin-7-yl)pyridin-2(1H)-one hydrochloride]
10 | 268 to 269 °C | – | 36 nM | Cl.O=c1cc(OCc2ccc(F)cn2)cnn1-c1ccc2c3c(oc2c1)CCNC3 [Example 50, 5-((5-Fluoropyridin-2-yl)methoxy)-2-(1,2,3,4-tetrahydrobenzofuro[3,2-c]pyridin-7-yl)pyridazin-3(2H)-one hydrochloride]
11 | 289 to 291 °C | – | 20 nM | Cl.O=c1cc(OCc2ccc(C(F)(F)F)nn2)ccn1-c1ccc2c3c(oc2c1)CCNC3 [Example 113, 1-(1,2,3,4-Tetrahydrobenzofuro[3,2-c]pyridin-7-yl)-4-((6-(trifluoromethyl)pyridazin-3-yl)methoxy)pyridin-2(1H)-one hydrochloride]
12 | 278 to 280 °C | – | 73 nM | Cl.O=c1cc(OCc2ccc(C(F)(F)F)nc2)ccn1-c1ccc2c3c(oc2c1)CCNC3 [Example 52, 1-(1,2,3,4-Tetrahydrobenzofuro[3,2-c]pyridin-7-yl)-4-((6-(trifluoromethyl)pyridin-3-yl)methoxy)pyridin-2(1H)-one hydrochloride]
